Measured values published in article PMC7508628, “Targeting the Respiratory Syncytial Virus N^0-P Complex with Constrained α-Helical Peptides in Cells and Mice” (Antimicrobial Agents and Chemotherapy, 2020).
Where a SMILES comes first, the peptide text is derived from it. Bridges are numbered along the chain shown (N, C = ends). [ ]: non-standard residue; d: D form. R8 = C=CCCCCCC[C@@](C)(N)C(=O)O; R5 = C=CCCC[C@@](C)(N)C(=O)O; S5 = C=CCCC[C@](C)(N)C(=O)O

Columns and labels:
circular dichroism = details: 10 mM phosphate; pH 7.5; 25 °C; 50 uM
[1] = Circular dichroism spectroscopy, α-helical content; type: physicochemical; details: CD, 10 mM phosphate buffer pH 7.5, 50 μM peptide, 25°C, calculated from ellipticity at 222 nm; average of three measurements
Protocol: The α-helical stabilization appeared to be higher for the i, i + 7 staples overall.
The circular dichroism spectra were acquired on a Chirascan spectropolarimeter. The samples were prepared in 10 mM phosphate buffer, pH 7.5, at a peptide concentration of 50 μM. Data were recorded at 25°C by step scan from 180 nm to 260 nm in a 0.5-mm-pathlength quartz cell using 0.2-nm-wavelength increments, a 1-nm bandwidth, and a response time of 1 s. Each spectrum was an average of three measurements and was subtracted from the buffer baseline. The data were converted to per residue molar ellipticity units (θ; in degrees · square centimeters · decimoles^−1 · number of residues^−1) and smoothed using Igor Pro software. Percent helicity was calculated as follows: (100 × CD222)/(C × N × {40,000 × [1 − (2.5/N)]}), where CD222 is the molar ellipticity (θ) at 222 nm (in millidegrees), N is the number of amino acids in the peptide, and C is the peptide molar concentration (in moles per liter).

[2] = biological target: monomeric N protein (N^mono), recombinant N^K170A/R185A (Human respiratory syncytial virus A, UniProt P03418, K170A/R185A); assay: Fluorescence polarization competition assay: displacement of FAM–P(1–40) from monomeric N; type: binding; details: FP competition with FAM–P(1–40) probe
rHRSV-mCherry = details: read-out: EC50 (half-maximal response inhibitory concentration), inhibition of RSV infection; HEp-2 cells, MOI 0.2, peptides added after 2 h infection, mCherry fluorescence at 48 h postinfection; duplicates

Chain of monomeric N protein (N^mono), recombinant N^K170A/R185A (P03418 whole entry K170A/R185A, looked up): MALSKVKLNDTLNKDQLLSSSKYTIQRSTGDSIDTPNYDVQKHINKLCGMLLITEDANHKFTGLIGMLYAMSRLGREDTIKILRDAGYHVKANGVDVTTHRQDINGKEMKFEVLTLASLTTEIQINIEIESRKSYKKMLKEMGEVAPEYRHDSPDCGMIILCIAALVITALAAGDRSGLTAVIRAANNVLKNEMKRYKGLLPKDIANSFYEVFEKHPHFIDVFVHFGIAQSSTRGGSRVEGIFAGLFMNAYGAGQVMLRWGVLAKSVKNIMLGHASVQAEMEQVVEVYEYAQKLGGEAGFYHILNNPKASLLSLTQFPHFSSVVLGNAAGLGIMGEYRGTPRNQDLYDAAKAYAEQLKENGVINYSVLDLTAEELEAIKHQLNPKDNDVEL

SMILES	helicity (circular dichroism) [%]	% helicity [1] [%]	Competitive binding to N^mono (in words) [2]	EC50 (rHRSV-mCherry) [µM]
CC[C@H](C)[C@H](NC(=O)[C@H](CO)NC(=O)[C@H](CCC(=O)O)NC(=O)[C@H](CC(C)C)NC(=O)[C@H](Cc1ccccc1)NC(=O)[C@H](CCCCN)NC(=O)[C@]1(C)CCCC=CCCC[C@@](C)(NC(=O)[C@H](CC(N)=O)NC(=O)[C@H](C)NC(=O)[C@H](CC(=O)O)NC(=O)[C@H](CCC(=O)O)NC(C)=O)C(=O)N[C@@H](CCCCN)C(=O)N[C@@H](C)C(=O)N1)C(=O)N[C@@H](CCCCN)C(=O)NCC(=O)N[C@@H](CCCCN)C(=O)N[C@@H](Cc1ccccc1)C(=O)N[C@@H](C)C(=O)N[C@@H](CO)C(N)=O [1a] (Ac-EDAN[R5]KA[S5]KFLESIKGKFAS-NH2; staple 5-8)	5.5	5.5	detrimental to the binding	–
CC[C@H](C)[C@H](NC(=O)[C@H](CO)NC(=O)[C@]1(C)CCCC=CCCC[C@@](C)(NC(=O)[C@@H](NC(=O)[C@H](C)NC(=O)[C@H](CCCCN)NC(=O)[C@H](CC(N)=O)NC(=O)[C@H](CC(N)=O)NC(=O)[C@H](C)NC(=O)[C@H](CC(=O)O)NC(=O)[C@H](CCC(=O)O)NC(=O)CNC(=O)[C@H](Cc2c[nH]cn2)NC(=O)[C@H](Cc2ccccc2)NC(=O)[C@H](CCC(=O)O)NC(C)=O)[C@@H](C)O)C(=O)N[C@@H](Cc2ccccc2)C(=O)N[C@@H](CC(C)C)C(=O)N1)C(=O)N[C@@H](CCCCN)C(=O)N[C@]1(C)CCCC=CCCC[C@@](C)(C(=O)N[C@@H](CO)C(N)=O)NC(=O)[C@H](Cc2ccccc2)NC(=O)[C@H](CCCCN)NC1=O [1c1f] (Ac-EFHGEDANNKAT[R5]FL[S5]SIK[R5]KF[S5]S-NH2; staple 13-16, 20-23)	–	39.2	–	> 100
CC(=O)N[C@@H](CCC(=O)O)C(=O)N[C@@H](CC(=O)O)C(=O)N[C@@H](C)C(=O)N[C@@H](CC(N)=O)C(=O)N[C@@H](CC(N)=O)C(=O)N[C@@H](CCCCN)C(=O)N[C@@H](C)C(=O)N[C@H](C(=O)N[C@@H](CCCCN)C(=O)N[C@@H](Cc1ccccc1)C(=O)N[C@]1(C)CCCC=CCCC[C@@](C)(C(=O)N[C@@H](CCCCN)C(=O)NCC(=O)N[C@@H](CCCCN)C(=O)N[C@@H](Cc2ccccc2)C(=O)N[C@@H](C)C(=O)N[C@@H](CO)C(N)=O)NC(=O)[C@H](CO)NC(=O)[C@H](CCC(=O)O)NC1=O)[C@@H](C)O [1d] (Ac-EDANNKATKF[R5]ES[S5]KGKFAS-NH2; staple 11-14)	24.2	24.2	no competition could be observed	–
CC[C@H](C)[C@H](NC(=O)[C@H](CO)NC(=O)[C@H](CCC(=O)O)NC(=O)[C@H](CC(C)C)NC(=O)[C@H](Cc1ccccc1)NC(=O)[C@H](CCCCN)NC(=O)[C@@H](NC(=O)[C@H](C)NC(=O)[C@H](CCCCN)NC(=O)[C@H](CC(N)=O)NC(=O)[C@H](CC(N)=O)NC(=O)[C@H](C)NC(=O)[C@H](CC(=O)O)NC(=O)[C@H](CCC(=O)O)NC(C)=O)[C@@H](C)O)C(=O)N[C@@H](CCCCN)C(=O)NCC(=O)N[C@]1(C)CCCC=CCCC[C@@](C)(C(N)=O)NC(=O)[C@H](C)NC(=O)[C@H](Cc2ccccc2)NC1=O [1g] (Ac-EDANNKATKFLESIKG[R5]FA[S5]-NH2; staple 17-20)	25.5	25.5	detrimental to the binding	–
CC[C@H](C)[C@H](NC(=O)[C@H](CO)NC(=O)[C@]1(C)CCCC=CCCC[C@](C)(NC(=O)[C@H](C)NC(=O)[C@H](CCCCN)NC(=O)[C@H](CC(N)=O)NC(=O)[C@H](CC(N)=O)NC(=O)[C@H](C)NC(=O)[C@H](CC(=O)O)NC(=O)[C@H](CCC(=O)O)NC(=O)CNC(=O)[C@H](Cc2c[nH]cn2)NC(=O)[C@H](Cc2ccccc2)NC(=O)[C@H](CCC(=O)O)NC(C)=O)C(=O)N[C@@H](CCCCN)C(=O)N[C@@H](Cc2ccccc2)C(=O)N[C@@H](CC(C)C)C(=O)N1)C(=O)N[C@@H](CCCCN)C(=O)N[C@]1(C)CCCC=CCCC[C@@](C)(C(=O)N[C@@H](CO)C(N)=O)NC(=O)[C@H](Cc2ccccc2)NC(=O)[C@H](CCCCN)NC1=O [2b1f] (Ac-EFHGEDANNKA[S5]KFL[S5]SIK[R5]KF[S5]S-NH2; staple 12-16, 20-23)	–	37.6	–	41 ± 0.5
CC[C@H](C)[C@H](NC(=O)[C@]1(C)CCCC=CCCC[C@](C)(NC(=O)[C@@H](NC(=O)[C@H](C)NC(=O)[C@H](CCCCN)NC(=O)[C@H](CC(N)=O)NC(=O)[C@H](CC(N)=O)NC(=O)[C@H](C)NC(=O)[C@H](CC(=O)O)NC(=O)[C@H](CCC(=O)O)NC(C)=O)[C@@H](C)O)C(=O)N[C@@H](Cc2ccccc2)C(=O)N[C@@H](CC(C)C)C(=O)N[C@@H](CCC(=O)O)C(=O)N1)C(=O)N[C@@H](CCCCN)C(=O)NCC(=O)N[C@@H](CCCCN)C(=O)N[C@@H](Cc1ccccc1)C(=O)N[C@@H](C)C(=O)N[C@@H](CO)C(N)=O [2c] (Ac-EDANNKAT[S5]FLE[S5]IKGKFAS-NH2; staple 9-13)	16.8	16.8	–	–
CC[C@H](C)[C@H](NC(=O)[C@H](CO)NC(=O)[C@]1(C)CCCC=CCCCCCC[C@@](C)(NC(=O)[C@H](CC(N)=O)NC(=O)[C@H](C)NC(=O)[C@H](CC(=O)O)NC(=O)[C@H](CCC(=O)O)NC(=O)CNC(=O)[C@H](Cc2c[nH]cn2)NC(=O)[C@H](Cc2ccccc2)NC(=O)[C@H](CCC(=O)O)NC(C)=O)C(=O)N[C@@H](CCCCN)C(=O)N[C@@H](C)C(=O)N[C@@H]([C@@H](C)O)C(=O)N[C@@H](CCCCN)C(=O)N[C@@H](Cc2ccccc2)C(=O)N[C@@H](CC(C)C)C(=O)N1)C(=O)N[C@@H](CCCCN)C(=O)N[C@]1(C)CCCC=CCCC[C@@](C)(C(=O)N[C@@H](CO)C(N)=O)NC(=O)[C@H](Cc2ccccc2)NC(=O)[C@H](CCCCN)NC1=O [3a1f] (Ac-EFHGEDAN[R8]KATKFL[S5]SIK[R5]KF[S5]S-NH2; staple 9-16, 20-23)	–	37.7	–	25.3 ± 17.9
CC[C@H](C)[C@H](NC(=O)[C@]1(C)CCCC=CCCCCCC[C@@](C)(NC(=O)[C@H](CC(N)=O)NC(=O)[C@H](CC(N)=O)NC(=O)[C@H](C)NC(=O)[C@H](CC(=O)O)NC(=O)[C@H](CCC(=O)O)NC(=O)CNC(=O)[C@H](Cc2c[nH]cn2)NC(=O)[C@H](Cc2ccccc2)NC(=O)[C@H](CCC(=O)O)NC(C)=O)C(=O)N[C@@H](C)C(=O)N[C@@H]([C@@H](C)O)C(=O)N[C@@H](CCCCN)C(=O)N[C@@H](Cc2ccccc2)C(=O)N[C@@H](CC(C)C)C(=O)N[C@@H](CCC(=O)O)C(=O)N1)C(=O)N[C@@H](CCCCN)C(=O)N[C@]1(C)CCCC=CCCC[C@@](C)(C(=O)N[C@@H](CO)C(N)=O)NC(=O)[C@H](Cc2ccccc2)NC(=O)[C@H](CCCCN)NC1=O [3b1f] (Ac-EFHGEDANN[R8]ATKFLE[S5]IK[R5]KF[S5]S-NH2; staple 10-17, 20-23)	–	46.6	–	> 100
CC[C@H](C)[C@@H]1NC(=O)[C@](C)(NC(=O)[C@H](CCC(=O)O)NC(=O)[C@H](CC(C)C)NC(=O)[C@H](Cc2ccccc2)NC(=O)[C@H](CCCCN)NC(=O)[C@@H](NC(=O)[C@H](C)NC(=O)[C@H](CCCCN)NC(=O)[C@H](CC(N)=O)NC(=O)[C@H](CC(N)=O)NC(=O)[C@H](C)NC(=O)[C@H](CC(=O)O)NC(=O)[C@H](CCC(=O)O)NC(C)=O)[C@@H](C)O)CCCCCCC=CCCC[C@@](C)(C(N)=O)NC(=O)[C@H](C)NC(=O)[C@H](Cc2ccccc2)NC(=O)[C@H](CCCCN)NC(=O)CNC(=O)[C@H](CCCCN)NC1=O [3e] (Ac-EDANNKATKFLE[R8]IKGKFA[S5]-NH2; staple 13-20)	19.9	19.9	–	–
CC[C@H](C)[C@H](NC(=O)[C@]1(C)CCCC=CCCCCCC[C@@](C)(NC(=O)[C@H](CC(N)=O)NC(=O)[C@H](CC(N)=O)NC(=O)[C@H](C)NC(=O)[C@]2(C)CCCC=CCCC[C@](C)(NC(=O)[C@H](CCC(=O)O)NC(C)=O)C(=O)N[C@@H](Cc3c[nH]cn3)C(=O)NCC(=O)N[C@@H](CCC(=O)O)C(=O)N2)C(=O)N[C@@H](C)C(=O)N[C@@H]([C@@H](C)O)C(=O)N[C@@H](CCCCN)C(=O)N[C@@H](Cc2ccccc2)C(=O)N[C@@H](CC(C)C)C(=O)N[C@@H](CCC(=O)O)C(=O)N1)C(=O)N[C@@H](CCCCN)C(=O)NCC(=O)N[C@@H](CCCCN)C(=O)N[C@@H](Cc1ccccc1)C(=O)N[C@@H](C)C(=O)N[C@@H](CO)C(N)=O [4c3b] (Ac-E[S5]HGE[S5]ANN[R8]ATKFLE[S5]IKGKFAS-NH2; staple 2-6, 10-17)	–	34.2	–	39.9 ± 4.5
